Measured values as given in paper PMC9781827, “Isolation and Identification of Anti-Inflammatory Peptide from Goose Blood Hydrolysate to Ameliorate LPS-Mediated Inflammation and Oxidative Stress in RAW264.7 Macrophages” (Molecules, 2022).

Tests used:
Format in all cases: cell-based
[1] = tested on: Keap-1, NrF2, HO-1; assay: Western blot of Keap-1, NrF2, HO-1 in RAW264.7 macrophages; conditions: stimulation with LPS alone
Procedure: (§1) RAW264.7 macrophages were washed with cold PBS and homogenized with two small magnetic beads (2 mm) and 10× volume of RIPA buffer containing 1% protease inhibitors for 60 s. Then the supernatant was collected after centrifuging at 12,000× g for 10 min at 4 °C, which was the total protein solution. The concentration of protein in the total protein solution was measured by BCA kits. The protein concentration of the supernatant was diluted to 2.0 mg/mL and mixed with an equal volume of buffer (0.25 mol/L Tris-HCl buffer, pH 6.8, containing 4% SDS and 20% glycerol with 20 mmol/L 2-mercaptoethanol). The stacking gel and separating gel were made of 5% (w/v) and 10% (w/v) polyacrylamide, respectively. Electrophoresis was carried out at 80 V until the dye front reached the bottom of the stacking gel, and the gel was run at 120 V until the dye front reached the bottom of the separating gel (165-8001, Bio-Rad Mini-PROTEAN Tetra Electrophoresis System). The PVDF membrane was covered on the gel and transferred membrane at 300 mA for 30 min. The membrane was moved into a decolorization shaker with 5% skim milk (0.5% TBST) and blocked for 1 h at room temperature. […] The film was scanned and archived, processed and decolorized by Photoshop, and the optical density value of the target band was analysed by ImageJ software processing system.

[2] = tested on: iNOS; assay: Western blot of iNOS in RAW264.7 macrophages; conditions: LPS group vs CTRL group, p < 0.05
Procedure: as §1

[3] = tested on: IL-6; assay: IL-6 level by ELISA in culture medium, model of LPS-mediated RAW264.7 macrophage inflammation; conditions: LPS group: LPS (1.0 μg/mL) alone, 24 h; mean ± S.D., n = 3
Procedure: The anti-inflammatory activity of the peptides was determined according to the methods of a previous study. The anti-inflammatory activity of different fractions was evaluated by measuring the levels of the inflammatory cytokines (TNF-α, IL-1β and IL-6) in a model of LPS-induced macrophage inflammation with ELISA kits (Jiangsu Enzyme marker Biotechnology Co., Ltd., Yancheng, China). […] A 20 mmol/L Tris-HCl (pH 8.0) solution was used as the start buffer and 20 mmol/L Tris-HCl/1 mol/L NaCl (pH 8.0) was used as elution buffer. Elution program: (1) wash with 5 column volumes of starting buffer; (2) elute with 10 column volumes of 50% elution buffer and 50% start buffer; (3) elute with 5 column volumes of 100% elution buffer. The above flow rates were 5 mL/min. The fractions were detected at 280 nm by an ultraviolet detector and collected by an automatic fraction collector.
The method of RAW264.7 macrophage culture and treatments were based on the study of Li et al.. […] Macrophages from passages 5 to 10 were selected to seed on 96-well culture plates at a density of 4 × 10^5 cells/well and cultured with different concentrations of LPS (0.5 μg/mL, 1.0 μg/mL and 2.0 μg/mL) for 24 h. The optimal concentration of LPS for inducing inflammation in the RAW264.7 macrophage was ensured according to cell viability. […] The ability of GBP to protect RAW264.7 macrophages was evaluated. […]

Question: How did the “protein expression level of Keap-1” value [1] turn out when lipopolysaccharide [LPS] was run?
Answer: significantly increased

Question: What about the “protein expression levels of NrF2 and HO-1” value [1] of the same substance?
Answer: decreased

Question: And the “protein expression level of iNOS” value [2]?
Answer: higher

Question: What about the “level of IL-6” value [3] of the same substance?
Answer: 373.01 ± 12.49 pg/mL
